From patent US20100022559A1, “BISOXIMES AS FUNGICIDES” (BAYER CROPSCIENCE AG, priority 2006, published 2010)

Tests used:
[1] = logP determination by HPLC on a reversed-phase column (C 18), EEC Directive 79/831 Annex V.A8; assay type: physicochemical
Procedure: The stated logP values were determined in accordance with EEC Directive 79/831 Annex V.A8 by HPLC (high performance liquid chromatography) on a reversed-phase column (C 18). Temperature: 43° C.

[2] = test system: Puccinia recondita; assay: Puccinia Recondita Test (Cereal)/Seed Treatment; assay type: in vivo; conditions: 50 g/100 kg of seed; seed treatment; evaluation about 7 days after inoculation
Procedure: Puccinia Recondita Test (Cereal)/Seed Treatment
The active compounds are applied as liquid dressings, 1 part by weight of the active compound being mixed with 10 parts by weight of a solvent. For each concentration tested, the appropriate volume from the mixture is pipetted. For the dressing, the preparation is pipetted onto the seed and the seed is shaken in a closed glass bottle for 3 minutes. At 3×12 grains, the seed is sown into a soil/sand mixture in pots. The pots are initially incubated at 5° C. in the dark for 14 days and then cultivated in a greenhouse at a temperature of about 10° C. and 15 hours of light per day for a further 14 days. The plants are then sprayed with a spore suspension of Puccinia recondita and subsequently placed in an incubation cabin at 18° C. and 100% relative atmospheric humidity for 48 hours. The plants are then placed in a greenhouse at a temperature of about 18° C. and a relative atmospheric humidity of 80%. Evaluation is carried out about 7 days after the inoculation. 0% means an efficacy which corresponds to that of the control, whereas an efficacy of 100% means that no infection is observed.

[3] = test system: larvae of the mustard beetle (Phaedon cochleariae); assay: Phaedon test (spray treatment); assay type: in vivo; conditions: active compound concentration 500 ppm, after 7 days, chinese cabbage leaf discs
Procedure: [table] To produce a suitable preparation of active compound, 1 part by weight of active compound is mixed with the stated amounts of solvents and emulsifier, and the concentrate is diluted with emulsifier-containing water to the desired concentration. Discs of chinese cabbage (Brassica pekinensis) are sprayed with an active compound preparation of the desired concentration and, after drying, populated with larvae of the mustard beetle (Phaedon cochleariae). After the desired period of time, the effect in % is determined. 100% means that all beetle larvae have been killed; 0% means that none of the beetle larvae have been killed.

| logP ([1]; method marker [b], isomer A / isomer B / isomer mixture as noted in the cell) | logP ([1]; method marked [b] in Table 1) | SMILES | efficacy [2] [%] | efficacy [3] [%] |
| --- | --- | --- | --- | --- |
| 4.40^[b] (isomer A) |  | CC(=NOCC(C)(C)CON=C(C)c1cccc(C)n1)c1cccc(C)n1 (single isomer, unassigned) [Compound 141] | ≥ 70 |  |
|  | 5.71^[b] | CCCC1=NOC(CON=C(CCC)c2cccc(C)n2)(CON=C(CCC)c2cccc(C)n2)C1 (stereo not shown) [Compound 618] |  | 100 |
